From patent US9266883B2, “Ring-fused bicyclic pyridyl derivatives as FGFR4 inhibitors” (Novartis AG, priority 2013, dated 2016) come the findings set out here.

Each structure is given as a SMILES string. Read-outs that look alike come from different tables or passages of the source.

The target in one assay is Tel-FGFR4 (Homo sapiens (Human), UniProt P22455). Kind of assay: In vitro cellular kinase assay for FGFR4 (BaF3-Tel-FGFR4 cells, MSD capture ELISA of tyrosine phosphorylation). Type of assay: cell-based. For orientation: In an ELISA, binding on a coated surface is turned into a signal by an enzyme label.
Assay [1] addresses FGFR4 (GST-FGFR4(388-802)) (Homo sapiens (Human), UniProt P22455). Nature of the assay: In-vitro biochemical kinase assay for FGFR4 (Caliper microfluidic mobility shift).
Setting [2] is: BaF3-Tel-FGFR4 cells, 1 hour incubation, read-out: Cellular BaF3 FGFR4 IC50.
[3] abbreviates: read-out: Biochemical FGFR4 IC50.
Where [4] appears, read: Cellular BaF3 FGFR4 assay, read-out: Cellular IC50.
The mark [5] stands for this setting: biochemical FGFR4 assay, read-out: Biochemical IC50.

FGFR4 (GST-FGFR4(388-802)), sequence (P22455 388-802): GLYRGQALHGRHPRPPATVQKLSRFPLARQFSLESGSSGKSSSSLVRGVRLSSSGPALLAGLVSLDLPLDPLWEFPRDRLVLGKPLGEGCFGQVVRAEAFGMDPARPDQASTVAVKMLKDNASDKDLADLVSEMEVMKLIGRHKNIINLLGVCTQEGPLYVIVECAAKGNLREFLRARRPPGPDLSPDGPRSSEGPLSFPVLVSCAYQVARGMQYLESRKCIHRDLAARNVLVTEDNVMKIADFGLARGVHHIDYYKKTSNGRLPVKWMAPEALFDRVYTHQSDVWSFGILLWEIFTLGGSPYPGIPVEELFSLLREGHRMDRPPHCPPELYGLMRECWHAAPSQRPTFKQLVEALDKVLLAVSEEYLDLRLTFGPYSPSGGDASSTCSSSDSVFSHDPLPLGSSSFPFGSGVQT
Tel-FGFR4, sequence (P22455 other isoform, or with tags, fused parts or gaps): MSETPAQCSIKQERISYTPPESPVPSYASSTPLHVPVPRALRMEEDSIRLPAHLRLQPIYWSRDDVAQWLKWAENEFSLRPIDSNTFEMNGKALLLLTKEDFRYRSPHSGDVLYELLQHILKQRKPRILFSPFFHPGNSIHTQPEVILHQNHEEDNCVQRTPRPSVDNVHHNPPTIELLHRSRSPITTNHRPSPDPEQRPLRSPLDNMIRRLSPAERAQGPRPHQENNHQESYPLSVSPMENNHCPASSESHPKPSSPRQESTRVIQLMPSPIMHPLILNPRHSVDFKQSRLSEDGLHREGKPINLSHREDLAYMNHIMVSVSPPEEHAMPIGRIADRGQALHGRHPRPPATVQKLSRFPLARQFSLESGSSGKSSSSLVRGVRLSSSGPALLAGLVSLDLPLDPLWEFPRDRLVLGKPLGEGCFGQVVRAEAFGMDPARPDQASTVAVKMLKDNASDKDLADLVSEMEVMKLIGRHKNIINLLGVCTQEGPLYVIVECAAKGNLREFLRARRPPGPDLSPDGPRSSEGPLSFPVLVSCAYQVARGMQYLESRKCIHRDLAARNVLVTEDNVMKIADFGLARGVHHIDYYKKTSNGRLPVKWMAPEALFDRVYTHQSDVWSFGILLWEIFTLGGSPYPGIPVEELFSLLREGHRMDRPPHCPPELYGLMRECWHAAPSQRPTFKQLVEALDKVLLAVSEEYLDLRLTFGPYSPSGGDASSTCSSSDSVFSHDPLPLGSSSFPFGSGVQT

Broadly, the IC50 is the point on the concentration scale where inhibition reaches its midpoint. `CCCCC(O)c1ccc(NC(=O)N2CCCc3ccc(C=O)nc32)nc1` (racemic) [Example 22, 7-formyl-N-(5-(1-hydroxypentyl)pyridin-2-yl)-3,4-dihydro-1,8-naphthyridine-1(2H)-carboxamide]: the IC50 was 2610 nM on Tel-FGFR4 (setting [2]) and 230 nM in assay [1] (setting [3]).

Regarding `N#Cc1cnc(NC(=O)N2CCCc3cc(CO)c(C=O)nc32)cc1OCC1CCCO1` (racemic) [Example 43, N-(5-cyano-4-((tetrahydrofuran-2-yl)methoxy)pyridin-2-yl)-7-formyl-6-(hydroxymethyl)-3,4-dihydro-1,8-naphthyridine-1(2H)-carboxamide], the IC50 is 7.5 nM at Tel-FGFR4 (setting [2]) and 5.2 nM in assay [1] (setting [3]).

With `N#Cc1cnc(NC(=O)N2CCCc3cc(CO)c(C=O)nc32)cc1OCC(O)CCCl` (racemic) [Example 60, N-(4-(4-chloro-2-hydroxybutoxy)-5-cyanopyridin-2-yl)-7-formyl-6-(hydroxymethyl)-3,4-dihydro-1,8-naphthyridine-1(2H)-carboxamide], the IC50 was found to be 26 nM on Tel-FGFR4 (setting [2]) and 0.8 nM in assay [1] (setting [3]).

Regarding `CN(C)CC1CN(c2cc(NC(=O)N3CCCc4cc(CO)c(C=O)nc43)ncc2C#N)CCO1` (racemic) [Example 81, N-(5-cyano-4-(2-((dimethylamino)methyl)morpholino)pyridin-2-yl)-7-formyl-6-(hydroxymethyl)-3,4-dihydro-1,8-naphthyridine-1(2H)-carboxamide], the IC50 on Tel-FGFR4 (setting [2]) came out at 146 nM.

Regarding `COCCNc1cc(NC(=O)N2CCCc3cc(CN(C)C(C)=O)c(C=O)nc32)ncc1C(F)(F)F` [7-formyl-N-(4-((2-methoxyethyl)amino)-5-(trifluoromethyl)pyridin-2-yl)-6-((N-methylacetamido)methyl)-3,4-dihydro-1,8-naphthyridine-1(2H)-carboxamide], the IC50 at Tel-FGFR4 (setting [4]) came to 11.5 nM; in assay [1] (setting [5]) it was 2.3 nM.

For `COc1cc(NC(=O)N2CCCc3cc(CN4CCCC4=O)c(C=O)nc32)ncc1C(F)(F)F` [7-formyl-N-(4-methoxy-5-(trifluoromethyl)pyridin-2-yl)-6-((2-oxopyrrolidin-1-yl)methyl)-3,4-dihydro-1,8-naphthyridine-1(2H)-carboxamide], the IC50 at Tel-FGFR4 (setting [4]) worked out at 138 nM; in assay [1] (setting [5]), 46.5 nM.

Take `CC(C)Oc1cc(NC(=O)N2c3nc(C=O)c(Br)cc3CC[C@H]2C)ncc1C#N` [(R)-6-bromo-N-(5-cyano-4-isopropoxypyridin-2-yl)-7-formyl-2-methyl-3,4-dihydro-1,8-naphthyridine-1(2H)-carboxamide]: the IC50 was found to be 168 nM on Tel-FGFR4 (setting [4]) and 21 nM in assay [1] (setting [5]).

For the compound `N#Cc1cnc(NC(=O)N2CCCc3cc(CN4CC[C@@H](O)C4=O)c(C=O)nc32)cc1OCC(F)F` [(R)-N-(5-cyano-4-(2,2-difluoroethoxyl)pyridin-2-yl)-7-formyl-6-((3-hydroxy-2-oxopyrrolidin-1-yl)methyl)-3,4-dihydro-1,8-naphthyridine-1(2H)-carboxamide], the IC50 worked out at 7.9 nM at Tel-FGFR4 (setting [4]) and 3.7 nM in assay [1] (setting [5]).

In the case of `COC[C@@H](C)Nc1cc(NC(=O)N2CCCc3cc(C(F)F)c(C=O)nc32)ncc1C#N` [(R)-N-(5-cyano-4-((1-methoxypropan-2-yl)amino)pyridin-2-yl)-6-(difluoromethyl)-7-formyl-3,4-dihydro-1,8-naphthyridine-1(2H)-carboxamide], the results for the IC50 (at Tel-FGFR4 (setting [4]); in assay [1] (setting [5])) were 19 nM and 1.2 nM, respectively.

Turning to `COC[C@@H](C)Nc1cc(NC(=O)N2CCCc3cc(CN4CCCC4=O)c(C=O)nc32)ncc1C#N` [(R)-N-(5-cyano-4-((1-methoxypropan-2-yl)amino)pyridin-2-yl)-7-formyl-6-((2-oxopyrrolidin-1-yl)methyl)-3,4-dihydro-1,8-naphthyridine-1(2H)-carboxamide], the IC50 on Tel-FGFR4 (setting [4]) came to 4.8 nM; in assay [1] (setting [5]), 0.6 nM.

In the case of `COC[C@@H](C)Nc1cc(NC(=O)N2CCCc3cc(CN4CCOCC4=O)c(C=O)nc32)ncc1C#N` [(R)-N-(5-cyano-4-((1-methoxypropan-2-yl)amino)pyridin-2-yl)-7-formyl-6-((3-oxomorpholino)methyl)-3,4-dihydro-1,8-naphthyridine-1(2H)-carboxamide], the IC50 on Tel-FGFR4 (setting [4]) is 4.6 nM; in assay [1] (setting [5]) it was 2.4 nM.

As to `COC[C@@H](C)Nc1cc(NC(=O)N2CCCc3cc(CN(C)C(C)=O)c(C=O)nc32)ncc1C#N` [(R)-N-(5-cyano-4-((1-methoxypropan-2-yl)amino)pyridin-2-yl)-7-formyl-6-((N-methylacetamido)methyl)-3,4-dihydro-1,8-naphthyridine-1(2H)-carboxamide], the IC50 at Tel-FGFR4 (setting [4]) was 4.5 nM; in assay [1] (setting [5]), 1.8 nM.

Take `COC[C@@H](C)Oc1cc(NC(=O)N2CCCc3cc(CN4CCCC4=O)c(C=O)nc32)ncc1C#N` [(R)-N-(5-cyano-4-((1-methoxypropan-2-yl)oxy)pyridin-2-yl)-7-formyl-6-((2-oxopyrrolidin-1-yl)methyl)-3,4-dihydro-1,8-naphthyridine-1(2H)-carboxamide]: the IC50 on Tel-FGFR4 (setting [4]) came to 2.3 nM; in assay [1] (setting [5]) it was 0.3 nM.

On to `COC[C@@H](C)Oc1cc(NC(=O)N2CCCc3cc(CN(C)C(C)=O)c(C=O)nc32)ncc1C#N` [(R)-N-(5-cyano-4-((1-methoxypropan-2-yl)oxy)pyridin-2-yl)-7-formyl-6-((N-methylacetamido)methyl)-3,4-dihydro-1,8-naphthyridine-1(2H)-carboxamide], for which the 50% inhibitory concentration (IC50) at Tel-FGFR4 (setting [4]) turned out to be 3.7 nM; at Tel-FGFR4 (measured and considered as outlier values, not included in the table or list, read-out: IC50 in the cellular BaF3 FGFR4 assay, outlier values), 174 nM; in assay [1] (setting [5]), 0.5 nM.

Turning to `COCCNc1cc(NC(=O)N2CCCc3cc(CN4CC[C@@H](N(C)C)C4=O)c(C=O)nc32)ncc1C#N` [(R)-N-(5-cyano-4-((2-methoxyethyl)amino)pyridin-2-yl)-6-((3-(dimethylamino)-2-oxopyrrolidin-1-yl)methyl)-7-formyl-3,4-dihydro-1,8-naphthyridine-1(2H)-carboxamide], the IC50 on Tel-FGFR4 (setting [4]) stood at 3.9 nM; in assay [1] (setting [5]), 1.6 nM.

Regarding `COCCNc1cc(NC(=O)N2CCCc3cc(CN4C[C@H](N(C)C)CC4=O)c(C=O)nc32)ncc1C#N` [(R)-N-(5-cyano-4-((2-methoxyethyl)amino)pyridin-2-yl)-6-((4-(dimethylamino)-2-oxopyrrolidin-1-yl)methyl)-7-formyl-3,4-dihydro-1,8-naphthyridine-1(2H)-carboxamide], the half-inhibitory concentration (IC50) was 6.1 nM on Tel-FGFR4 (setting [4]) and 0.2 nM in assay [1] (setting [5]).

On to `CC(C)Oc1cc(NC(=O)N2CCCc3cc(CN4C[C@H](N(C)C)CC4=O)c(C=O)nc32)ncc1C#N` [(R)-N-(5-cyano-4-isopropoxypyridin-2-yl)-6-((4-(dimethylamino)-2-oxopyrrolidin-1-yl)methyl)-7-formyl-3,4-dihydro-1,8-naphthyridine-1(2H)-carboxamide], for which the IC50 on Tel-FGFR4 (setting [4]) is 6.7 nM; in assay [1] (setting [5]) it was 0.3 nM.

Turning to `CC(C)Oc1cc(NC(=O)N2c3nc(C=O)c(Br)cc3CC[C@@H]2C)ncc1C#N` [(S)-6-bromo-N-(5-cyano-4-isopropoxypyridin-2-yl)-7-formyl-2-methyl-3,4-dihydro-1,8-naphthyridine-1(2H)-carboxamide], the IC50 came out at 95.5 nM at Tel-FGFR4 (setting [4]) and 3.3 nM in assay [1] (setting [5]).

On to `CO[C@@H](C)COc1cc(NC(=O)N2CCCc3cc(CN4CCN(C)CC4=O)c(C=O)nc32)ncc1C#N` [(S)-N-(5-cyano-4-(2-methoxypropoxyl)pyridin-2-yl)-7-formyl-6-((4-methyl-2-oxopiperazin-1-yl)methyl)-3,4-dihydro-1,8-naphthyridine-1(2H)-carboxamide], for which the IC50 is 10.8 nM at Tel-FGFR4 (setting [4]) and 2.2 nM in assay [1] (setting [5]).

In the case of `CC(=O)N(C)Cc1cc2c(nc1C=O)N(C(=O)Nc1cc(OCc3cccs3)c(C#N)cn1)CCC2` [Example 239, N-(5-cyano-4-(thiophen-2-ylmethoxy)pyridin-2-yl)-7-formyl-6-((N-methylacetamido)methyl)-3,4-dihydro-1,8-naphthyridine-1(2H)-carboxamide], the IC50 on Tel-FGFR4 (setting [2]) came out at 19.6 nM.

`COCCNc1cc(NC(=O)N2CCCc3cc(-c4cccs4)c(C=O)nc32)ncc1C#N` [Example 253, N-(5-cyano-4-((2-methoxyethyl)amino)pyridin-2-yl)-7-formyl-6-(thiophen-2-yl)-3,4-dihydro-1,8-naphthyridine-1(2H)-carboxamide]: on Tel-FGFR4 (setting [2]), the IC50 came out at 37 nM.

Turning to `CNc1cc(NC(=O)N2CCCc3cc(CN(C)C(=O)CN(C)C)c(C=O)nc32)ncc1C#N` [N-(5-cyano-4-(methylamino)pyridin-2-yl)-6-((2-(dimethylamino)-N-methylacetamido)methyl)-7-formyl-3,4-dihydro-1,8-naphthyridine-1(2H)-carboxamide], the IC50 on Tel-FGFR4 (setting [4]) was 11.3 nM.

Regarding `CNc1cc(NC(=O)N2CCCc3cc(CN4CCN(C)CC4=O)c(C=O)nc32)ncc1C#N` [N-(5-cyano-4-(methylamino)pyridin-2-yl)-7-formyl-6-((4-methyl-2-oxopiperazin-1-yl)methyl)-3,4-dihydro-1,8-naphthyridine-1(2H)-carboxamide], the IC50 at Tel-FGFR4 (setting [4]) is 3.7 nM.

Take `N#Cc1cnc(NC(=O)N2CCCc3cc(C(F)F)c(C=O)nc32)cc1OCC1CNCCO1` (stereo not shown) [N-(5-cyano-4-(morpholin-2-ylmethoxy)pyridin-2-yl)-6-(difluoromethyl)-7-formyl-3,4-dihydro-1,8-naphthyridine-1(2H)-carboxamide]: at Tel-FGFR4 (setting [4]), the IC50 worked out at 10.8 nM.

In the case of `N#Cc1cnc(NC(=O)N2CCCc3cc(CO)c(C=O)nc32)cc1OCC1CNCCO1` (stereo not shown) [N-(5-cyano-4-(morpholin-2-ylmethoxy)pyridin-2-yl)-7-formyl-6-(hydroxymethyl)-3,4-dihydro-1,8-naphthyridine-1(2H)-carboxamide], the IC50 in assay [1] (setting [5]) amounted to 350 nM.

On to `CCc1cc(NC(=O)N2CCCc3cc(CO)c(C=O)nc32)ncc1C#N` [N-(5-cyano-4-ethylpyridin-2-yl)-7-formyl-6-(hydroxymethyl)-3,4-dihydro-1,8-naphthyridine-1(2H)-carboxamide], for which the IC50 in assay [1] (setting [5]) was 960 nM.

As for `CC(=O)N(C)Cc1cc2c(nc1C=O)N(C(=O)Nc1cc(OC(C)C)c(C#N)cn1)CCC2` [N-(5-cyano-4-isopropoxypyridin-2-yl)-7-formyl-6-((N-methylacetamido)methyl)-3,4-dihydro-1,8-naphthyridine-1(2H)-carboxamide], in assay [1] (setting [5]), the IC50 came out at 1.5 nM.
